Reference: patent US7268231B2, “1,5-Naphthyridine azolinone” (Hoffmann-La Roche Inc., priority 2004, dated 2007)
pKi: −log10 of the molar value.

molecular target: T1, recombinant human CDK1/Cyclin B complex (Homo sapiens, UniProt P06493); test: CDK1/Cyclin B kinase assay (FlashPlate or HTRF); type: biochemical; settings: Rb protein substrate, Ki=IC50/(1+[S]/Km)
T1 construct: made in house; host or cells: High Five insect cells (baculovirus) for CDK1/GST-cyclin B; M15 E. coli for the Rb substrate
T1 sequence (P06493 whole entry): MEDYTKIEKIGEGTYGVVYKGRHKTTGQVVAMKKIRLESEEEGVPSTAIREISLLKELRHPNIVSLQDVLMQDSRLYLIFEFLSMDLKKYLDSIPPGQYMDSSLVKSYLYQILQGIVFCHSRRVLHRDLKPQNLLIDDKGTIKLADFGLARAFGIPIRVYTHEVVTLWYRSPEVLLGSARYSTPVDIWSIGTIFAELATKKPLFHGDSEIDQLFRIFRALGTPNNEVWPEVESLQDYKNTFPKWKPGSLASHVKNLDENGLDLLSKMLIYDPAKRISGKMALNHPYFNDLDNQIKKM
T1 sequence (P14635 whole entry partner): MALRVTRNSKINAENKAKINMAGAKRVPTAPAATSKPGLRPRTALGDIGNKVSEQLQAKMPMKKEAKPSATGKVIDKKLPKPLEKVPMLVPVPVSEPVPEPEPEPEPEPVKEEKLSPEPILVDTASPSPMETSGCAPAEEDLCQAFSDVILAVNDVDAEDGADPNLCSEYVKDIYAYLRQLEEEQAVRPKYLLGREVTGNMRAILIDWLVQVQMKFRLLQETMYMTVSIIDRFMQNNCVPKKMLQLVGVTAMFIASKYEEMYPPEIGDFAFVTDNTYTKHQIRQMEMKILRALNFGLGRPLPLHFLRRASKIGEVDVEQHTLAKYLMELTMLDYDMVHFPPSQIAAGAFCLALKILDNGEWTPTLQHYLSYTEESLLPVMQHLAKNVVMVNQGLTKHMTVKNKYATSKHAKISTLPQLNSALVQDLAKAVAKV
Method: To determine inhibition of CDK1 activity, either FlashPlate™ (NEN™-Life Science Products) assay or HTRF assay was performed. Both types of kinase assays were carried out using recombinant human CDK1/Cyclin B complex. GST-cyclinB (GST-cycB) and CDK1 cDNA clones in baculovirus vectors were provided by Dr. W. Harper at the Baylor College of Medicine, Houston, Tex. Proteins were co-expressed in High Five™ insect cells and the complex was purified on glutathione Sepharose resin (Pharmacia, Piscataway, N.J.) as previously described (Harper, J. W. et al. Cell 1993, 75, 805-816). A 6×-Histidine tagged truncated form of retinoblastoma (Rb) protein (amino acid 386-928) was used as the substrate for the CDK1/Cyclin B assay (the expression plasmid was provided by Dr. Veronica Sullivan, Department of Molecular Virology, Roche Research Centre, Welwyn Garden City, United Kingdom). The Rb protein is a natural substrate for phosphorylation by CDK1 (see Herwig and Strauss Eur. J. Biochem. Vol. 246 (1997) pp. 581-601 and the references cited therein). The expression of the 62Kd protein was under the control of an IPTG inducible promoter in an M15 E. coli strain. Cells were lysed by sonication and purification was carried out by binding lysates at pH 8.0 to a Ni-chelated agarose column pretreated with 1 mM imidazole. The resin was then washed several times with incrementally decreasing pH buffers to pH 6.0, and eluted with 500 mM imidazole. Eluted protein was dialysed against 20 mM HEPES pH 7.5, 30% glycerol, 200 mM NaCl, and 1 mM DTT. Purified Rb fusion protein stocks were quantitated for protein concentration, aliquoted, and stored at −70° C.
For the FlashPlate kinase assay, 96-well FlashPlates were coated with Rb protein at 10 μg/ml, using 100 μl per well. Plates were incubated at 4° C. overnight or at room temperature for 3 hours on a shaker. To control for nonspecific phosphorylation, one row of wells was coated with 100 μl/well coating buffer (20 mM HEPES, 0.2 M NaCl). Plates were then washed twice with wash buffer (0.01% Tween 20 in phosphate-buffered saline). Compounds to be tested (“test compounds”) were added to the wells at 5× final concentration. Reactions were initiated by immediate addition of 40 μl reaction mix (25 mM HEPES, 20 mM MgCl2, 0.002% Tween 20, 2 mM DTT, 1 μM ATP, 4 nM 33P-ATP) and a sufficient amount of enzyme to give counts that were at least 10-fold above background. Plates were incubated at room temperature on a shaker for 30 minutes. Plates were washed four times with the wash buffer, sealed, and counted on the TopCount scintillation counter (Packard Instrument Co., Downers Grove, Ill.]. The percent inhibition of Rb phosphorylation, which is a measure of the inhibition of CDK activity, was determined according to the following formula:
[formula] where “test compound” refers to the average counts per minute of the test duplicates, “nonspecific” refers to the average counts per minute when no CDK1/Cyclin B, etc., was added, and “total” refers to the average counts per minute when no compound was added. […] The value of the inhibitor constant Ki is calculated by the following: Ki=IC50/(1+[S]/Km), where [S] is the ATP concentration and Km is Michaelis constant.
The Homogeneous Time Resolved Fluorescence (HTRF) kinase assay was carried out in 96-well polypropylene plates (BD Biosciences, Bedford, Mass.). […]

In order of rising pKi:
1. NC1=NC(=O)/C(=C/c2ccc3ncccc3n2)S1 [Example 4, 2-Amino-5-[1,5]naphthyridin-2-ylmethylene-thiazol-4-one]  5.33
2. CC(=O)NC1=NC(=O)/C(=C/c2ccc3ncccc3n2)N1 [Example 16, N-(5-[1,5]Naphthyridin-2-ylmethylene-4-oxo-4,5-dihydro-1H-imidazol-2-yl)-acetamide]  5.93
3. O=C1N=C(NCc2ccc(C(F)(F)F)cc2C(F)(F)F)N/C1=C\c1ccc2ncccc2n1 [Example 20, 2-(2,4-Bis-trifluoromethyl-benzylamino)-5-[1,5]naphthyridin-2-ylmethylene-1,5-dihydro-imidazol-4-one]  6.13
4. O=C1N=C(NCc2ccc(F)c(Cl)c2)S/C1=C\c1ccc2ncccc2n1 [Example 8, 2-(3-Chloro-4-fluoro-benzylamino)-5-[1,5]naphthyridin-2-ylmethylene-thiazol-4-one]  6.55
5. Cc1cccc(Cl)c1CNC1=NC(=O)/C(=C/c2ccc3ncccc3n2)S1 [Example 12, 2-(2-Chloro-6-methyl-benzylamino)-5-[1,5]naphthyridin-2-ylmethylene-thiazol-4-one]  7.50
